From publication PMC10855334, “Molecular and Functional Characterization of Three General Odorant-Binding Protein 2 Genes in Cydia pomonella (Lepidoptera: Tortricidae)” (International Journal of Molecular Sciences, 2024)

Tests used:
[1] = target: CpomGOBP2c (Cydia pomonella); assay: Fluorescence competitive binding assay (1-NPN probe), recombinant CpomGOBP2c; details: 2.0 µM protein in 50 mM Tris-HCl pH 7.4 titrated with 1-NPN, read-out: dissociation constant with 1-NPN
From the text: (§1) The proteins were recombinantly expressed using an Escherichia coli expression system with an N-His tag. The complete coding regions lacking the signal peptide sequence of CpomGOBP2a, CpomGOBP2b, and CpomGOB2c were subcloned into the NdeI/EcoRI restricted and dephosphorylated pET-28b expression vector. The constructed plasmid was subsequently transformed into E. coli BL21 (DE3) competent cells for further expression. The size and purity of the target proteins were confirmed using sodium dodecyl sulfate-polyacrylamide gel electrophoresis (SDS-PAGE) and Western blot. The proteins were stored at −80 °C for subsequent fluorescence competitive binding experiments.
(§2) Fluorescence competitive binding assays were conducted on a Synergy4 (BioTek Instruments, Winooski, VT, USA) microplate reader using the F96 Black ELIAS Plate (Xinyou Biotechnology, Hangzhou, China). Probe 1-NPN and the tested ligands were dissolved in spectrophotometric-grade methanol to generate 1.0 mM stock solutions. The fluorescence probe 1-NPN was excited at 337 nm, and emission spectra were recorded between 390 and 490 nm. Initially, to test the binding constants of 1-NPN to the CpomGOBP2, a 2.0 µM solution of protein in 50 mM Tris-HCl (pH = 7.4) was titrated with 1 mM of 1-NPN to achieve various concentrations. […] After 2 min of odorant addition, the fluorescence intensity was measured and documented. […]

CpomGOBP2a = CpomGOBP2a (Cydia pomonella, UniProt J7G4I1); assay: Fluorescence competitive binding assay (1-NPN probe), recombinant CpomGOBP2a; details: for Ki: 2.0 µM protein and 2.0 µM 1-NPN, 50 mM Tris-HCl pH 7.4, competitor 2-20 µM, read-out: dissolution constants (Ki)
Chain of CpomGOBP2a (J7G4I1 entry or part of it): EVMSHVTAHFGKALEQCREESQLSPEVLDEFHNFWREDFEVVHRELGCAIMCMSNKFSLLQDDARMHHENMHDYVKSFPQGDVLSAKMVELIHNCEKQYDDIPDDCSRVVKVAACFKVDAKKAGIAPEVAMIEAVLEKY
From the text: as §1
Fluorescence competitive binding assays were conducted on a Synergy4 (BioTek Instruments, Winooski, VT, USA) microplate reader using the F96 Black ELIAS Plate (Xinyou Biotechnology, Hangzhou, China). Probe 1-NPN and the tested ligands were dissolved in spectrophotometric-grade methanol to generate 1.0 mM stock solutions. The fluorescence probe 1-NPN was excited at 337 nm, and emission spectra were recorded between 390 and 490 nm. Initially, to test the binding constants of 1-NPN to the CpomGOBP2, a 2.0 µM solution of protein in 50 mM Tris-HCl (pH = 7.4) was titrated with 1 mM of 1-NPN to achieve various concentrations. Next, the competitive binding of each odorant (Table 1) was examined using 1-NPN as a fluorescent reporter and the odorant as a competitor. The concentrations of protein and 1-NPN were both 2.0 µM; the odorant was included after the protein and 1-NPN were added into the well of the ELIAS Plate for 2 min. The final concentrations of each competitor were 2, 4, 6, 8, 10, 12, 14, 16, 18, and 20 µM. After 2 min of odorant addition, the fluorescence intensity was measured and documented. The volume of mixed solution in each well was maintained at 250 µL. Each interaction was conducted in triplicate.

CpomGOBP2b = CpomGOBP2b (Cydia pomonella, UniProt J7GAV3); assay: Fluorescence competitive binding assay (1-NPN probe), recombinant CpomGOBP2b; details: 2.0 µM protein in 50 mM Tris-HCl pH 7.4 titrated with 1-NPN, read-out: dissociation constant with 1-NPN
Chain of CpomGOBP2b (J7GAV3 entry or part of it): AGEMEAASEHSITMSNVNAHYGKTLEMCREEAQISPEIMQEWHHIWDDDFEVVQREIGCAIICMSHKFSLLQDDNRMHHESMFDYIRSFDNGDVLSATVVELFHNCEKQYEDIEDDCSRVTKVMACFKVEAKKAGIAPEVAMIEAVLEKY
From the text: as §1, §2

Chain of CpomGOBP2c (Cydia pomonella) (J7GAV3 entry or part of it): as above

Row | Compound | Ki (CpomGOBP2a) | Kd [1] | Kd (CpomGOBP2a; 2.0 µM protein in 50 mM Tris-HCl pH 7.4 titrated with 1-NPN, read-out: dissociation constant with 1-NPN) | Kd (CpomGOBP2b)
1 | c1ccc(Nc2cccc3ccccc23)cc1 [1-NPN] | – | 18.9 µM | 12.6 µM | 27.5 µM
2 | CCCCCCCC(=O)OCCCC [butyl octanoate] | 8.6 µM | – | – | –
3 | C/C=C/C=C/CCCCCCCO [codlemone] | 22.7 µM | – | – | –

More lines, main results first:

Row | Ki (CpomGOBP2a) | Compound | Kd [1] | Kd (CpomGOBP2a; 2.0 µM protein in 50 mM Tris-HCl pH 7.4 titrated with 1-NPN, read-out: dissociation constant with 1-NPN) | Kd (CpomGOBP2b)
4 | 9.15 µM | CCCCC/C=C\C=C\C(=O)OCC [ethyl (2E,4Z)-deca-2,4-dienoate] | – | – | –
5 | 22.9 µM | CC(=O)CC/C=C(\C)CCC=C(C)C [geranylacetone] | – | – | –
